Measurements as given in patent US6215002A, “Pyrrolopyrrolone derivatives as inhibitors of neutrophil elastase” (priority 1996, dated 2001).
Counter-ions that a name gives are not always drawn.

What was measured:
[1] = target: T1, human neutrophil elastase (Homo sapiens, UniProt P08246); assay: In vitro assay of human neutrophil elastase (HNE); format: biochemical; conditions: 118 nM purified human neutrophil elastase, pH 8.6, 15 min incubation at 30° C., MeO-succinyl-alanyl-alanyl-prolyl-valyl-p-nitroanilide substrate; read-out: HNE IC50
T1 sequence (P08246 30-267): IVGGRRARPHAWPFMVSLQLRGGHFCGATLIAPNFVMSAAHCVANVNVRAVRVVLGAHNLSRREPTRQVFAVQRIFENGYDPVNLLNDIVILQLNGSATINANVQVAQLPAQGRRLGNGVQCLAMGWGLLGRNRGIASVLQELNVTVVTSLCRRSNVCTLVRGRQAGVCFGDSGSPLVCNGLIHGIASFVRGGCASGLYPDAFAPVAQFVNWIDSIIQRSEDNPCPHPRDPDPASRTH
Procedure, shortened: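 Residual activity was taken as the 10 min rate of absorbance rise at 405 nm after adding 0.6 mM MeO-succinyl-AAPV-p-nitroanilide. Curve fitting of activity against concentration gave IC50.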

Intracellular elastase = assay: Oral in vivo model using IL-8 induced lung infiltrates for the assessment of intracellular elastase inhibition (hamster test); conditions: effective dose of less than 40 mg/kg, IL-8 intratracheal
Method: An Oral in vivo Model Using IL-8 Induced Lung Infiltrates For the Assessment of Intracellular Elastase Inhibition
Adult hamsters (100-150 g) are randomised into groups (n=4) and fasted overnight. Under gaseous anaesthetic (3% isofluorane) animals are dosed orally with 1 mL/100 g water as vehicle or containing predissolved compounds. Either at the same time, or subsequently under anaesthetic, animals are dosed intratracheally with 1 ug recombinant human IL-8 in 100 uL sterile saline. Six hours after IL-8 dosing animals are sacrificed using intrapertoneal pentobarbitone. The lungs are ravaged with 2×2.5 mL sterile saline and femurs are removed by dissection.
Intracellular elastase is prepared from neutrophils collected by lavage and from femoral bone marrow. This is achieved by sonication of the neutrophils and centrifugation to yield intracellular granules. These are disrupted by freeze/thawing and sonication. Elastase and myeloperoxidase assays are then performed on these samples to assess the efficacy of the compounds and to normalise for neutrophil recovery.

SMILES	IC50 [1] [nM]	duration of effect (Intracellular elastase)
CCC[C@H]1C(=O)N(S(=O)(=O)c2ccc3ccccc3c2)[C@H]2CCN(C(=O)CCN3CCCCC3)[C@H]12 (relative stereo) [Example 2, rel-(3R,3aR,6aS)-1-(Naphthalene-2-sulfonyl)-4-(3-piperidin-1-yl-propionyl)-3-propyl-hexahydro-pyrrolo[3,2-b]pyrrol-2-one hydrochloride]	137	at least 6 hours
CCC[C@H]1C(=O)N(S(C)(=O)=O)[C@H]2CCN(C(=O)CCN3CCCCC3)[C@H]12 (relative stereo) [Example 29, rel-(3R,3aR,6aS)-1-Methanesulfonyl-4-(3-piperidin-1-yl-propionyl)-3-propyl-hexahydro-pyrrolo[3,2-b]pyrrol-2-one]	139	at least 6 hours
CCC[C@H]1C(=O)N(S(C)(=O)=O)[C@H]2CCN(C(=O)CCCCCN3CCOCC3)[C@H]12.O=C(O)C(O)C(O)C(=O)O (relative stereo) [Example 58, rel-(3R,3aR,6aS)-1-Methanesulfonyl-4-(6-morpholin-4-yl-hexanoyl)-3-propylhexahydro-pyrrolo[3,2-b]pyrrol-2-one 2,3-dihydroxysuccinate]	72	at least 6 hours
CC(C)[C@H]1C(=O)N(S(C)(=O)=O)[C@H]2CCN(C(=O)CCCCCN3CCCCCC3)[C@H]12 (relative stereo) [Example 60, rel-(3R,3aR,6aS)-4-(6-Azepin-1-yl-hexanoyl-3-isopropyl-1-methanesulfonyl)-hexahydro-pyrrolo[3,2-b]pyrrol-2-one hydrochloride]	47	at least 6 hours
CC(C)[C@H]1C(=O)N(S(C)(=O)=O)[C@H]2CCN(C(=O)CCN3CCCCC3)[C@H]12 (relative stereo) [Example 61, rel-(3R,3aR,6aS)-3-isopropyl-1-methanesulfonyl-4-(3-piperidin-1yl-propionyl-hexahydro-pyrrolo[3,2-b]pyrrol-2-one hydrochloride]	242	at least 6 hours
CC(C)[C@H]1C(=O)N(S(C)(=O)=O)[C@H]2CCN(C(=O)/C=C/CN3C(C)CCCC3C)[C@H]12.Cl (relative stereo) [Example 139, rel-(3R,3aR,6aS)-4-[4-(2,6-Dimethyl-piperidin-1-yl)-but-2E-enoyl]-3-isopropyl-1-methanesulfonyl-hexahydro-pyrrolo[3,2-b]pyrrol-2-one hydrochloride]	55	at least 6 hours
CCCN(C)C/C=C/C(=O)N1CC[C@H]2[C@H]1[C@@H](C(C)C)C(=O)N2S(C)(=O)=O.Cl (relative stereo) [Example 141, rel-(3R,3aR,6aS)-3-Isopropyl-1-methanesulfonyl-4-[4-(methyl-propyl-amino)-but-2E-enoyl]-hexahydro-pyrrolo[3,2-b]pyrrol-2-one hydrochloride]	176	at least 6 hours
CC(C)[C@H]1C(=O)N(S(C)(=O)=O)[C@H]2CCN(C(=O)/C=C/CN3CCOCC3)[C@H]12.Cl (relative stereo) [Example 142, rel-(3R,3aR,6aS)-3-isopropyl-1-methanesulfonyl-4-(4-morpholin-4-yl-but-2E-enoyl)-hexahydro-pyrrolo[3,2-b]pyrrol-2-one hydrochloride]	55	at least 6 hours
CC(C)[C@H]1C(=O)N(S(C)(=O)=O)[C@H]2CCN(C(=O)/C=C/CN3CCCCC3)[C@H]12.Cl [Example 155, (3R,3aR,6aS)-3-Isopropyl-1-methanesulfonyl-4-(4-piperidin-1-yl-but-2E-enoyl)-hexahydro-pyrrolo[3,2-b]pyrrol-2-one hydrochloride]		at least 6 hours

Further lines, with some results ahead:

IC50 [1] [nM]	SMILES	duration of effect (Intracellular elastase)
27	CCC[C@H]1C(=O)N(S(C)(=O)=O)[C@H]2CCN(C(=O)/C=C/CN3CCCCC3)[C@H]12 (relative stereo) [Example 57, rel-(3R,3aR,6aS)-1-Methanesulfonyl-4-(4-piperidin-1-yl-but-2-(E)-enoyl-3-propyl-hexahydro-pyrrolo[3,2-b]pyrrol-2-one hydrochloride]	at least 6 hours
39	CCC[C@H]1C(=O)N(S(C)(=O)=O)[C@H]2CCN(C(=O)CCCCCN3CCCCCC3)[C@H]12 (relative stereo) [Example 59, hydrochloride]	at least 6 hours
10	CCC[C@H]1C(=O)N(S(C)(=O)=O)[C@H]2CCN(C(=O)c3ccc(CN4CCCCC4)cc3)[C@H]12 (relative stereo) [Example 62, rel-(3R,3aR,6aS)-1-Methanesulfonyl-1-4-(4-piperidin-1-ylmethyl-benzoyl)-3-propyl-hexahydro-pyrrolo[3,2-b]pyrrol-2-one]	at least 6 hours
6	CCC[C@H]1C(=O)N(S(C)(=O)=O)[C@H]2CCN(S(=O)(=O)c3ccc(NC(C)=O)cc3)[C@H]12 (relative stereo) [Example 63, rel-N-[4-(4-Methanesulfonyl-5-oxo-6R-propyl-hexahydro-(3aS,6aR)-pyrrolo[3,2-b]pyrrole-1-sulfonyl)phenyl]-acetamide]	at least 6 hours
22	CC(C)[C@H]1C(=O)N(S(C)(=O)=O)[C@H]2CCN(C(=O)/C=C/CN3CCCCCC3)[C@H]12 (relative stereo) [Example 136, hydrochloride]	at least 6 hours
45	CC(C)[C@H]1C(=O)N(S(C)(=O)=O)[C@H]2CCN(C(=O)/C=C/CNC3CC3)[C@H]12.Cl (relative stereo) [Example 137, rel-(3R,3aR,6aS)-4-(4-Cyclopropylamino-but-2E-enoyl)-3-isopropyl-1-methanesulfonyl-hexahydro-pyrrolo[3,2-b]pyrrol-2-one hydrochloride]	at least 6 hours
42	CC(=O)N1CCN(C/C=C/C(=O)N2CC[C@H]3[C@H]2[C@@H](C(C)C)C(=O)N3S(C)(=O)=O)CC1.Cl (relative stereo) [Example 138, rel-(3R,3aR,6aS)-4-[4-(4-Acetyl-piperazin-1-yl)-but-2E-enoyl]-3-isopropyl-1-methanesulfonyl-hexahydro-pyrrolo[3,2-b]pyrrol-2-one hydrochloride]	at least 6 hours
36	COC(=O)[C@@H]1CCCN1C/C=C/C(=O)N1CC[C@H]2[C@H]1[C@@H](C(C)C)C(=O)N2S(C)(=O)=O (relative stereo) [Example 140, 1-[4-(rel-6R-Isopropyl-4-methanesulfonyl-5-oxo-hexahydro-(3aS,6aR)-pyrrolo[3,2-b]pyrrol-1-yl)-4-oxo-but-2E-enyl]-pyrrolidine-2S-carboxylic acid methyl ester hydrochloride]	at least 6 hours
33	CC(C)[C@H]1C(=O)N(S(C)(=O)=O)[C@H]2CCN(C(=O)/C=C/CN3CCN(C)CC3)[C@H]12.Cl (relative stereo) [Example 143, rel-(3R,3aR,6aS)-3-Isopropyl-1-methanesulfonyl-4-[4-(4-methyl-piperazin-1-yl)-but-2E-enoyl]-hexahydro-pyrrolo[3,2-b]pyrrol-2-one hydrochloride]	at least 6 hours
